This experiment concerns EN1 and LMX1A. The experiment can be described thus: qRT-PCR analysis of ventral midbrain markers EN1 and LMX1A in imDAP cells. To be noted: 3-step protocol. It counts as cell-based, human. As to the method: (1) qRT-PCR • 1. For qRT-PCR analysis of mRNA gene expression, RNA should be harvested from at least 2×10^6 cells. • 2. Harvest cells, add 350 μl of buffer RLT+1% (vol/vol) β-mercaptoethanol to the well, transfer the lysate to a 1.5 ml tube, and put it immediately on ice. • 3. Perform RNA extraction using the Tiangen Kit (DP430) and following the manufacturer's protocol ‘Purification of total RNA from animal and human cells’. • 4. When the RNA extraction was completed, determine the RNA concentration using a Nanodrop instrument. • 5. Perform the first-strand cDNA synthesis reaction with 1 μg of RNA using the HiScript™ II Q RT SuperMIX for qPCR (+gDNA wiper) Kit (Vazyme, #R223-01) for RT-qPCR. Follow the manufacturer's ‘First-Strand cDNA Synthesis’ protocol. This reaction would yield a 20 μl product. • 6. Dilute 10 μl cDNA product in 80 μl of nuclease-free water. • 7. Pipette the diluted cDNA product (1 μl), Sybr green master mix (5 μl, Transgen, #AQ131) and 0.95 μM reverse/forward primer mix (4 μl) into a 384-well PCR plate in triplicate, either manually or using an automated pipetting robot. The complete primer panel included the target genes and the housekeeping gene (RPL13A). In the analysis, the expression level of gene was determined by using a sample of undifferentiated hPSCs as control. • 8. Analyze the samples by running a quantitative PCR on the LightCycler 480 instrument using a 40x cycle two-step protocol with a 60° C., 60 sec annealing/elongation step and a 95° C., 30 sec denaturation step. The average CT value from the three technical replicates was used for calculation of relative gene expression using the ΔΔCT method. […]
On Day-1, EB formation (Stage 1) was carried out by dissociating hiPSCs (Nuwacell) to form a single-cell suspension and resuspending it in Epic medium (Nuwacell, #RP01001) containing 10 μM Blebbistatin (MCE, #HY-13441) in T25 flasks on a belly dancer and culturing the cells overnight. […] On Day 16 (at the end of S2-2), imDAP cells were collected and analyzed by qRT-PCR assay for ventral midbrain marker EN1 and LMX1A. […]

Take `Cc1cnc(-c2cnc(NCCNc3ccc(C#N)cn3)nc2-c2ccc(Cl)cc2Cl)[nH]1` [CHIR, CHIR99021]: the “expression levels of EN1 and LMX1A” value by setting is: (CHIR 5 μM and 7.5 μM compared to 10 μM) “better results”; (CHIR 7.5 μM Stage 2-2 from Day 3 to Day 6 versus Day 3 to Day 10) “comparable”; (high CHIR 5, 7.5 or 10 μM Day 3 to Day 10, relative to the 2-step protocol) “increased”.

These data come from patent US20250136934A1, “PRODUCTION OF INDUCED MIDBRAIN DOPAMINERGIC PROGENITOR CELLS FROM PLURIPOTENT STEM CELLS” (NUWACELL BIOTECHNOLOGIES CO., LTD., priority 2023, published 2025).
